Test: Monitoring cerebral blood flow in an adult human by DOT after an indocyanine green bolus
Format: in vivo
Description: A 100 mW, 808 nm laser diode coupled to a 1 mm diameter fused silica fiber was used to deliver light to an adult human head. Four diode detectors were coupled to the scalp via 3 mm diameter plastic fibers. The collecting fibers were positioned 1, 2, 3, and 4 cm from the emitting fiber. These four separations were chosen to discriminate between scalp signals and […]. Measurements made at 1 and 2 cm separations were sensitive to changes in the optical properties of only the skull and scalp. On the other hand, measurements made at 3 and 4 cm separations were sensitive to changes in the optical properties of the brain, skull, and scalp. The remitted intensity at the four positions was sampled at 4 Hz. Baseline data was collected for 10 seconds, followed by the bolus injection. The bolus consisted of a 2 ml saline solution of 40 mg of indocyanine green injected into a vein in the arm of the volunteer. This injection was immediately followed by a 10 ml saline flush.
The data is summarized in the graph of FIG. 15, showing the attenuation of the optical signal caused by passing of the bolus of indocyanine green through the brain of the adult human volunteer. […] The small increases in each signal at about 34 seconds resulted from the re-circulation of the indocyanine green bolus.

Compound: CC1(C)C(/C=C/C=C/C=C/C=C2\N(CCCCS(=O)(=O)O)c3ccc4ccccc4c3C2(C)C)=[N+](CCCCS(=O)(=O)[O-])c2ccc3ccccc3c21 [indocyanine green]
- delay of the drop in the signals relative to 3 and 4 cm separations (1 and 2 cm optode separations (scalp and skull only)): about 2 seconds
- time following injection of the dye bolus at which the signal dropped significantly (3 and 4 cm optode separations, 40 mg in 2 ml saline i.v. in the arm, 808 nm): 20 s
- time of small signal increases from re-circulation of the bolus (each signal, all separations): about 34 seconds
- concentration of second passage bolus, times smaller than the first passage bolus (re-circulation): about 10 times
